Test results: publication PMC9695642, “Conservation of Importin α Function in Apicomplexans: Ivermectin and GW5074 Target Plasmodium falciparum Importin α and Inhibit Parasite Growth in Culture” (International Journal of Molecular Sciences, 2022)
Where “and” joins values, the source holds several entries; their conditions need not be identical. Equal values may be shown once. Read-outs that look alike come from different tables or passages of the source.

Key:
PfIMPα [1] = molecular target: T1, PfIMPα (Plasmodium falciparum, UniProt Q8IAW0); assay: AlphaScreen inhibition of PfIMPα binding to TGS1-NLS-GFP
Excerpt: (§1) Inhibitors of mammalian IMPα function are of key interest as anti-infectious agents. One of the first described is the small molecule macrocyclic lactone ivermectin, produced by the bacterium Streptomyces avermitilis, that is approved by the US Food and Drug Administration for parasitic infections. […] Chemically distinct from ivermectin, GW5074 (3-(3,5-dibromo-4-hydroxybenzyliden)-5-iodo-1,3-dihydroindol-2-one) binds to mammalian IMPα with analogous structural effects on IMPα and inhibitory effects on NLS recognition/IMPβ1 binding by IMPα [24]. […] We set out to test the activity of these inhibitors with respect to NLS binding by PfIMPα and TgIMPα, with NLS binding by MmIMPα analysed in parallel (Figure 3; Table 3). As expected, ivermectin and GW5074 inhibited MmΔIBBIMPα-SV40 T-ag with IC50 values of 5–6 µM, consistent with published data. […] The results clearly indicate that chemical inhibitors known to target mammalian IMPα can inhibit apicomplexan IMPα, underlining the structural and functional conservation of IMPα from apicomplexans to mammalian systems.
(§2) Figure 3 Ivermectin and GW5074 inhibit IMPα-NLS interaction at low micromolar concentration. AlphaScreen technology was used to determine the IC50 for inhibition by ivermectin and GW5074 binding of IMPαs (5 nM) to NLS (30 nM). Data represent the mean ± SEM for quadruplet wells from a single experiment, from a series of 3 independent experiments (see Table 3 for pooled data).
(§3) PfIMPα, TgIMPα, MmIMPα, ΔIBBMmIMPα, and MmIMPβ1 GST fusion proteins were expressed and purified essentially as previously. His-tagged T-ag-NLS-GFP, TGS1-NLS-GFP, GCN5-NLS-GFP, PfIMPα, and TgIMPα proteins were all purified using Ni^2+-affinity chromatography, as previously. Biotinylation of GST-tagged proteins was carried out using the Sulfo-NHS-Biotin reagent (Pierce, Rockford, IL, USA), as described previously. The AlphaScreen binding assay was performed as previously.

TgIMPα = TgIMPα (Toxoplasma gondii, UniProt A0A125YID0); assay: AlphaScreen inhibition of TgIMPα binding to T-ag-NLS-GFP
Excerpt: as §1, §2, §3

MmΔIBBIMPα = molecular target: T2, MmΔIBBIMPα (Mus musculus, UniProt P52293); assay: AlphaScreen inhibition of MmΔIBBIMPα binding to T-ag-NLS-GFP
T2 construct: GST; made in house
Excerpt: as §1, §2, §3

PfIMPα:MmIMPβ1 = PfIMPα:MmIMPβ1 (Plasmodium falciparum, UniProt Q8IAW0); assay: AlphaScreen inhibition of PfIMPα binding to MmIMPβ1
Excerpt: (§4) As indicated, both ivermectin and GW5074 have been previously shown to inhibit interaction between mammalian IMPα and IMPβ1 [24, 32]. We tested their activity towards apicomplexan IMPα (Figure 4; Table 4). As previously observed, binding of MmIMPα:MmIMPβ1 was inhibited strongly by both agents, with IC50 values of c. […] Clearly, ivermectin and GW5074 are able to act on apicomplexan IMPα in analogous fashion to MmIMPα in terms of the ability to bind to IMPβ1, the results further underlining the structural and functional conservation of IMPα from apicomplexans to mammalian systems.
(§5) Figure 4 Ivermectin and GW5074 inhibit IMPα–IMPβ interaction. AlphaScreen technology was used to determine the IC50 for inhibition by ivermectin and GW5074-binding of IMPβ (30 nM) to IMPαs (30 nM). Data represent the mean ± SEM for quadruplet wells from a single experiment, from a series of three independent experiments (see Table 4 for pooled data).
as §3

TgIMPα:MmIMPβ1 = TgIMPα:MmIMPβ1 (Toxoplasma gondii, UniProt A0A125YID0); assay: AlphaScreen inhibition of TgIMPα binding to MmIMPβ1
Excerpt: as §4, §5, §3

MmIMPα:MmIMPβ1 = molecular target: T3, MmIMPα:MmIMPβ1 (Mus musculus, UniProt P52293); assay: AlphaScreen inhibition of MmIMPα binding to MmIMPβ1
T3 construct: His; made in house
Excerpt: as §4, §5, §3

PfIMPα [2] = molecular target: T1, PfIMPα; assay: Far-UV CD spectroscopy, α-helical content of PfIMPα with compound; type: binding; details: PfIMPα alone c. 63 % α-helical
Experimental: Previous analysis for MmIMPα using several biophysical approaches had established that the mechanism by which both ivermectin and GW5074 have an impact on NLS and IMPβ1 binding by MmIMPα is by direct binding to the ARM repeat domain of IMPα to perturb structural conformation. […] 63 % α-helical, compared to c. 70 % for MmIMPα (Figure 5b).
CD spectra were also analysed in the presence of increasing concentrations of ivermectin and GW5074, with both agents having a marked impact on the structure, especially at high concentrations (Figure 5a,b), consistent with the idea that both bind to the proteins directly to perturb structure. PfIMPα appeared to be particularly susceptible to both agents, with 30 µM GW5074 reducing α-helicity by more than a half (Figure 5a,b) to a residual value of 30%, which fell below 10% in the presence of 80 µM GW5074. […] 20% at 80 µM. The results, overall, indicate that both ivermectin and GW5074 can bind to and destabilise the structure of both PfIMPα and TgIMPα in analogous fashion to their known effects on mammalian IMPα, further underlining the conservation of structure and function between apicomplexan and mammalian IMPαs.
Figure 5 CD spectra for apicomplexan and mammalian IMPαs in the absence and presence of ivermectin and GW5074. CD spectra were collected for PfIMPα, TgIMPα, and MmIMPα in the absence or presence of 30 μM and 80 μM ivermectin and GW5074. (a) Spectra shown are from a single experiment, representative of two independent experiments for 30 μM concentration of ivermectin and GW5074. Note: θ is ellipticity. […]
CD spectroscopy was used to study the binding of ivermectin and GW5074 to PfIMPα, TgIMPα and MmIMPα, as previously described. CD spectra of the proteins at 0.1 mg/mL concentration were recorded from 200–260 nm using Jasco CD spectrometer (Jasco, Portland, OR, USA). CD spectra of the IMPαs were also measured in the presence of 30 µM and 80 µM concentrations of the ivermectin and GW5074 compounds. Percentage α-helix content was calculated from the ellipticity at 222 nm as described in [51]. […]

P. falciparum 3D7 strain = assay: P. falciparum growth inhibition, HRP2-based sandwich ELISA; type: cell-based, Plasmodium falciparum; details: 72 h
Excerpt: To test the potential antimalarial action of GW5074, we compared the activity of GW5074 to ivermectin against the asexual stages of P. falciparum parasites, using an established HRP2-based (histidine-rich protein 2) ELISA [38, 39, 40]. The assay uses a sandwich ELISA to measure HRP2 levels as an indicator of parasite growth; the clinically prescribed drug dihydroartemisinin (DHA) was used as a positive control.
Figure 6 Ivermectin and GW5074 inhibit P. falciparum parasites in culture at low µM concentrations. P. falciparum cultures (0.25% parasitemia) were treated with increasing concentrations of the indicated compounds for 72 h, after which the HRP2-based sandwich ELISA was used to measure the HRP2 levels, determined by optical density. The results shown are from a single typical experiment performed in duplicate (SD shown), representative of a series of three independent experiments (see Table 5 for pooled data).
P. falciparum 3D7 strain was cultured and maintained in human red blood cells (RBCs) using RPMI (Roswell Park Memorial Institute) 1640 medium supplemented with 0.5% Albumax (GibcoTM, Waltham, MA, USA), 50 mg/L hypoxanthine (Sigma-Aldrich, St. Louis, MO, USA), 2 g/L D-glucose (Sigma-Aldrich, St. Louis, MO, USA), 2 g/L sodium bicarbonate (Sigma-Aldrich, St. Louis, MO, USA), and 56 mg/L of gentamicin (Abbott, Chicago, IL, USA) at 37 °C in 5% CO2 in a humidified incubator, according to the standard procedures. Cultures presynchronised using 5% D-sorbitol (Sigma-Aldrich, St. Louis, MO, USA) to obtain predominantly the ring stage of the P. falciparum life cycle were used for the growth assays, as previously. DHA (a gift from IPCA Laboratories, Mumbai, India) was used as a control. Growth assays in the absence and presence of inhibitors were performed using the HRP2 sandwich horseradish peroxidase-linked immunosorbent assay that measures HRP2 levels as an indicator of growth.

Molecule `O=C1Nc2ccc(I)cc2C1=Cc1cc(Br)c(O)c(Br)c1` [GW5074, 3-(3,5-dibromo-4-hydroxybenzyliden)-5-iodo-1,3-dihydroindol-2-one] has an IC50 (PfIMPα [1]; AlphaScreen, IMPα 5 nM, NLS 30 nM, pooled mean ± SEM (n = 3), read-out: IC50, inhibition of PfIMPα:TGS1 NLS binding) of 6.5 ± 0.4 µM, an IC50 (PfIMPα [1]; single experiment of a series of 3, read-out: IC50, PfIMPα:TGS1-NLS-GFP (Figure 3)) of 6 µM and an IC50 (TgIMPα; AlphaScreen, IMPα 5 nM, NLS 30 nM, pooled mean ± SEM (n = 3), read-out: IC50, inhibition of TgIMPα:SV40 T-ag NLS binding) of 7.7 ± 1.9 µM. For the same molecule, the IC50 (TgIMPα; single experiment of a series of 3, read-out: IC50, TgIMPα:T-ag-NLS-GFP (Figure 3)) was 5.4 µM, the IC50 (MmΔIBBIMPα; AlphaScreen, IMPα 5 nM, NLS 30 nM, pooled mean ± SEM (n = 3), read-out: IC50, inhibition of ΔIBBmIMPα:SV40 T-ag NLS binding) was 4.9 ± 1.4 µM and the IC50 (MmΔIBBIMPα; single experiment of a series of 3, read-out: IC50, MmΔIBBIMPα:T-ag-NLS-GFP (Figure 3)) was 2.2 µM. For the same molecule, the IC50 (PfIMPα:MmIMPβ1; AlphaScreen, IMPβ 30 nM, IMPα 30 nM, pooled mean ± SEM (n = 3), read-out: IC50, inhibition of PfIMPα:MmIMPβ1 binding) was 41 ± 1.5 µM, the IC50 (PfIMPα:MmIMPβ1; single experiment of a series of three, read-out: IC50, PfIMPα:MmIMPβ1 (Figure 4)) was 39 µM and the IC50 (TgIMPα:MmIMPβ1; AlphaScreen, IMPβ 30 nM, IMPα 30 nM, pooled mean ± SEM (n = 3), read-out: IC50, inhibition of TgIMPα:MmIMPβ1 binding) was 11 ± 1.5 µM. For the same molecule, the IC50 (TgIMPα:MmIMPβ1; single experiment of a series of three, read-out: IC50, TgIMPα:MmIMPβ1 (Figure 4)) was 13 µM, the IC50 (MmIMPα:MmIMPβ1; AlphaScreen, IMPβ 30 nM, IMPα 30 nM, pooled mean ± SEM (n = 3), read-out: IC50, inhibition of MmIMPα:MmIMPβ1 binding) was ~22 µM and 22 µM and the IC50 (MmIMPα:MmIMPβ1; single experiment of a series of three, read-out: IC50, MmIMPα:MmIMPβ1 (Figure 4)) was 23 µM. The “residual α-helicity of PfIMPα” value (PfIMPα [2]; 30 µM compound) was 30%, the “residual α-helicity of PfIMPα” value (PfIMPα [2]; 80 µM compound) was “below 10%” and the IC50 (P. falciparum 3D7 strain; Plasmodium falciparum, 3D7, 72 h, single typical experiment in duplicate, read-out: IC50, P. falciparum growth (Figure 6)) was 6.5 µM. The IC50 (P. falciparum 3D7 strain; Plasmodium falciparum, 3D7, 72 h, asexual stages, pooled mean ± SD (n = 3), read-out: IC50, inhibition of growth of P. falciparum parasites in culture) was roughly 6 µM and the IC50 (P. falciparum 3D7 strain; asexual stages, pooled mean ± SD (n = 3), read-out: IC50, inhibition of growth of P. falciparum parasites in culture) was 5.5 ± 0.9 µM.
